Laboratory results published in patent publication US20260166039A1 (SCHRÖDINGER, INC., priority 2022, published 2026).
pIC50: −log10 of the molar value.

Molecular target: T1, Wee1 kinase domain (Homo sapiens, UniProt P30291)
T1 construct: Wee1 kinase domain was purchased from Carna (catalog #05-177); purchased Carna 05-177
Assay: Wee1 Kinase Biochemical Assay (ADP-Glo)
Settings: class symbols; 1 nM Wee1 enzyme, 15 uM ATP, 4 hours at 25° C.
Summary of the method: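 Carna Wee1 kinase domain at 1 nM, with 15 uM ATP and 2 ng/mL poly(Lys,Tyr 4:1) substrate in 40 mM Tris-HCl, 20 mM MgCl2, 0.1 mg/mL BSA, 2 mM DTT, run 4 h at 25° C. ADP formation read by ADP-Glo luminescence. Percent inhibition normalised to DMSO and saturating-inhibitor controls.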

T1 sequence (P30291 299-569 limits assumed): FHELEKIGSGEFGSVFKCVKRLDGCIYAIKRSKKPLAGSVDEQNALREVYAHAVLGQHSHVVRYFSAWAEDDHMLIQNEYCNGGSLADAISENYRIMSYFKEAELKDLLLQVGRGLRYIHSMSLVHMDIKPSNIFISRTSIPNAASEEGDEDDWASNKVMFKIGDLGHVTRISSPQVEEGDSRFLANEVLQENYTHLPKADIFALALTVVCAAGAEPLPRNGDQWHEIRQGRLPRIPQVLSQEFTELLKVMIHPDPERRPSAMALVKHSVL

| Compound | pIC50 |
| --- | --- |
| CN(C)Cc1cccc(N2c3nc(Nc4ccc(N5CCOCC5)cc4)ncc3[C@]3(C)COC(C)(C)C[C@H]23)n1 (single isomer, unassigned) [Example 524] | 6.00 to 7.00 |
| CC1(C)C[C@@H]2N(c3cccc([C@@H]4CCCN4)n3)c3nc(Nc4ccc(N5CCOCC5)cc4)ncc3[C@]2(C)CO1 (single isomer, unassigned) [Example 525] | 6.00 to 7.00 |
| CC1(C)C[C@@H]2N(c3cccc([C@H]4CCCN4)n3)c3nc(Nc4ccc(N5CCOCC5)cc4)ncc3[C@]2(C)CO1 (single isomer, unassigned) [Example 527] | 7.00 to 8.00 |
| CC1(C)C[C@H]2N(c3cccc([C@H]4CCCN4)n3)c3nc(Nc4ccc(N5CCOCC5)cc4)ncc3[C@@]2(C)CO1 (single isomer, unassigned) [Example 528] | > 8.00 |
| Cc1cc(Nc2ncc3c(n2)N(c2cccc([C@@H]4CCCN4)n2)[C@H]2CC(C)(C)OC[C@@]32C)ccc1N1CCOCC1 (single isomer, unassigned) [Example 530] | 7.00 to 8.00 |
| CC1(C)C[C@@H]2N(c3cccc(C4CCNCC4)n3)c3nc(Nc4ccc(N5CCOCC5)cc4)ncc3[C@]2(C)CO1 (single isomer, unassigned) [Example 532] | 6.00 to 7.00 |
| CN1CCC(c2cccc(N3c4nc(Nc5ccc(N6CCOCC6)cc5)ncc4[C@]4(C)COC(C)(C)C[C@H]34)n2)CC1 (single isomer, unassigned) [Example 534] | 6.00 to 7.00 |
| CN1CCN(c2cccc(N3c4nc(Nc5ccc(N6CCOCC6)cc5)ncc4[C@]4(C)COC(C)(C)C[C@H]34)n2)CC1 (single isomer, unassigned) [Example 536] | 7.00 to 8.00 |
| CN[C@@H](C)c1cccc(N2c3nc(Nc4ccc(N5CCOCC5)cc4)ncc3[C@]3(C)COC(C)(C)C[C@H]23)n1 (single isomer, unassigned) [Example 538] | 7.00 to 8.00 |
| CC1(C)C[C@@H]2N(c3cccc([C@H]4CCNC4)n3)c3nc(Nc4ccc(N5CCOCC5)cc4)ncc3[C@]2(C)CO1 (single isomer, unassigned) [Example 540] | 7.00 to 8.00 |
| CC1(C)C[C@@H]2N(c3cccc([C@H]4CCNC4)n3)c3nc(Nc4ccc(N5CCOCC5)cc4)ncc3[C@]2(C)CO1 (single isomer, unassigned) [Example 541] | 6.00 to 7.00 |
| CNC1(c2cccc(N3c4nc(Nc5ccc(N6CCOCC6)cc5)ncc4[C@]4(C)COC(C)(C)C[C@H]34)n2)CC1 (single isomer, unassigned) [Example 544] | 6.00 to 7.00 |
| CC1(C)C[C@@H]2N(c3cccc(C4(F)CNC4)n3)c3nc(Nc4ccc(N5CCOCC5)cc4)ncc3[C@]2(C)CO1 (single isomer, unassigned) [Example 546] | 6.00 to 7.00 |
| CNCc1ccnc(N2c3nc(Nc4ccc(N5CCOCC5)cc4)ncc3[C@@]3(C)COC(C)(C)C[C@@H]23)c1 (single isomer, unassigned) [Example 547] | 7.00 to 8.00 |
| CNCc1ccnc(N2c3nc(Nc4ccc(N5CCOCC5)cc4)ncc3[C@]3(C)COC(C)(C)C[C@H]23)c1 (single isomer, unassigned) [Example 548] | ≤ 6.00 |
| CN[C@H](C)c1cccc(N2c3nc(Nc4ccc(N5CCOCC5)cc4)ncc3[C@]3(C)COC(C)(C)C[C@H]23)n1 (single isomer, unassigned) [Example 550] | 6.00 to 7.00 |
| CN[C@H]1CCc2ccc(N3c4nc(Nc5ccc(N6CCOCC6)cc5)ncc4[C@@]4(C)COC(C)(C)C[C@@H]34)nc21 (single isomer, unassigned) [Example 552] | 6.00 to 7.00 |
| CN[C@@H]1CCc2ccc(N3c4nc(Nc5ccc(N6CCOCC6)cc5)ncc4[C@]4(C)COC(C)(C)C[C@H]34)nc21 (single isomer, unassigned) [Example 554] | 6.00 to 7.00 |
| CN[C@H](C)c1cc(C)nc(N2c3nc(Nc4ccc(N5CCOCC5)cc4)ncc3[C@@]3(C)COC(C)(C)C[C@@H]23)c1 (single isomer, unassigned) [Example 557] | > 8.00 |
| CN[C@H](C)c1cc(C)nc(N2c3nc(Nc4ccc(N5CCOCC5)cc4)ncc3[C@]3(C)COC(C)(C)C[C@H]23)c1 (single isomer, unassigned) [Example 558] | 6.00 to 7.00 |
| CN[C@@H](C)c1cc(C)nc(N2c3nc(Nc4ccc(N5CCOCC5)cc4)ncc3[C@]3(C)COC(C)(C)C[C@H]23)c1 (single isomer, unassigned) [Example 559] | ≤ 6.00 |
| CN[C@@H](C)c1cc(C)nc(N2c3nc(Nc4ccc(N5CCOCC5)cc4)ncc3[C@@]3(C)COC(C)(C)C[C@@H]23)c1 (single isomer, unassigned) [Example 560] | 7.00 to 8.00 |
| CC1(C)C[C@@H]2N(c3ccc4c(n3)CCNC4)c3nc(Nc4ccc(N5CCOCC5)cc4)ncc3[C@]2(C)CO1 (single isomer, unassigned) [Example 561] | ≤ 6.00 |
| CC1(C)C[C@@H]2N(c3ccc4c(n3)[C@](C)(N)CC4)c3nc(Nc4ccc(N5CCOCC5)cc4)ncc3[C@]2(C)CO1 (single isomer, unassigned) [Example 563] | 6.00 to 7.00 |

| Compound | pIC50 |
| --- | --- |
| CC1(C)C[C@@H]2N(c3ccc4c(n3)[C@@](C)(N)CC4)c3nc(Nc4ccc(N5CCOCC5)cc4)ncc3[C@]2(C)CO1 (single isomer, unassigned) [Example 566] | ≤ 6.00 |
| CC1(C)C[C@@H]2N(c3cccc(C(C)(C)N)n3)c3nc(Nc4ccc(N5CCOCC5)cc4)ncc3[C@]2(C)CO1 (single isomer, unassigned) [Example 568] | 7.00 to 8.00 |
| CN[C@]1(C)CCc2ccc(N3c4nc(Nc5ccc(N6CCOCC6)cc5)ncc4[C@]4(C)COC(C)(C)C[C@H]34)nc21 (single isomer, unassigned) [Example 570] | 6.00 to 7.00 |
| CN[C@@]1(C)CCc2ccc(N3c4nc(Nc5ccc(N6CCOCC6)cc5)ncc4[C@@]4(C)COC(C)(C)C[C@@H]34)nc21 (single isomer, unassigned) [Example 571] | > 8.00 |
| CNCc1cccc(N2c3nc(Nc4ccc(N5CCOCC5)cc4)ncc3[C@]3(C)COCC[C@H]23)n1 (single isomer, unassigned) [Example 573] | 6.00 to 7.00 |
| CN1CCN(c2ccc(Nc3ncc4c(n3)N(c3cccc(N5CCOC5=O)n3)[C@H]3CC(C)(C)OC[C@@]43C)cc2)CC1 (single isomer, unassigned) [Example 576] | 6.00 to 7.00 |
| CN[C@@H](C)c1cccc(N2c3nc(Nc4ccc(N5C[C@H]6C[C@@H]5CO6)cc4)ncc3[C@]3(C)COC(C)(C)C[C@H]23)n1 (single isomer, unassigned) [Example 578] | 6.00 to 7.00 |
| CN[C@@H](C)c1cccc(N2c3nc(Nc4ccc(N5C[C@@H]6C[C@H]5CO6)cc4)ncc3[C@]3(C)COC(C)(C)C[C@H]23)n1 (single isomer, unassigned) [Example 580] | 6.00 to 7.00 |
| C[C@H]1CCC(=O)N1c1cccc(N2c3nc(Nc4ccc(N5CCN(C)CC5)cc4)ncc3[C@]3(C)COC(C)(C)C[C@H]23)n1 (single isomer, unassigned) [Example 582] | 6.00 to 7.00 |
| Cc1cc(Nc2ncc3c(n2)N(c2cccc(C(=O)N(C)C)n2)[C@H]2CC(C)(C)OC[C@@]32C)ccc1C1CCN(C)CC1 (single isomer, unassigned) [Example 584] | 6.00 to 7.00 |
| CN1CCN(c2ccc(Nc3ncc4c(n3)N(c3cccc(N5CCCC5=O)n3)[C@H]3CC(C)(C)OC[C@@]43C)cc2)CC1 (single isomer, unassigned) [Example 586] | 7.00 to 8.00 |
| C[C@@H]1COC(=O)N1c1cccc(N2c3nc(Nc4ccc(N5CCN(C)CC5)cc4)ncc3[C@]3(C)COC(C)(C)C[C@H]23)n1 (single isomer, unassigned) [Example 588] | 7.00 to 8.00 |
| CN1CCC(c2ccc(Nc3ncc4c(n3)N(c3cccc(N5CCOC5=O)n3)[C@H]3CC(C)(C)OC[C@@]43C)cc2)CC1 (single isomer, unassigned) [Example 590] | 7.00 to 8.00 |
| CN1C[C@H]2C[C@@H]1CN2c1ccc(Nc2ncc3c(n2)N(c2cccc(N4CCOC4=O)n2)[C@H]2CC(C)(C)OC[C@@]32C)cc1 (single isomer, unassigned) [Example 592] | 7.00 to 8.00 |
| CN1C[C@@H]2C[C@H]1CN2c1ccc(Nc2ncc3c(n2)N(c2cccc(N4CCOC4=O)n2)[C@H]2CC(C)(C)OC[C@@]32C)cc1 (single isomer, unassigned) [Example 594] | 6.00 to 7.00 |
| Cc1cc(Nc2ncc3c(n2)N(c2cccc(N4CCOC4=O)n2)[C@H]2CC(C)(C)OC[C@@]32C)ccc1C1CCN(C)CC1 (single isomer, unassigned) [Example 596] | 7.00 to 8.00 |
| C[C@H]1CN(c2cccc(N3c4nc(Nc5ccc(N6CCN(C)CC6)cc5)ncc4[C@]4(C)COC(C)(C)C[C@H]34)n2)C(=O)O1 (single isomer, unassigned) [Example 598] | 6.00 to 7.00 |
| CC1(C)C[C@@H]2N(c3cccc(N4CCOC4=O)n3)c3nc(Nc4ccc(N5CCNCC5)cc4)ncc3[C@]2(C)CO1 (single isomer, unassigned) [Example 600] | 6.00 to 7.00 |
| CC1(C)C[C@H]2N(c3cccc(N4CCOC4=O)n3)c3nc(Nc4ccc(N5CCNCC5)cc4)ncc3[C@@]2(C)CO1 (single isomer, unassigned) [Example 601] | > 8.00 |
| CN1CC[C@H](c2ccc(Nc3ncc4c(n3)N(c3cccc(N5CCOC5=O)n3)[C@H]3CC(C)(C)OC[C@@]43C)cc2)C1 (single isomer, unassigned) [Example 603] | 7.00 to 8.00 |
| CN1CC[C@@H](c2ccc(Nc3ncc4c(n3)N(c3cccc(N5CCOC5=O)n3)[C@H]3CC(C)(C)OC[C@@]43C)cc2)C1 (single isomer, unassigned) [Example 604] | 7.00 to 8.00 |
| CC1(C)C[C@@H]2N(c3cccc(N4CCOC4=O)n3)c3nc(Nc4ccc([C@@H]5CCNC5)cc4)ncc3[C@]2(C)CO1 (single isomer, unassigned) [Example 606] | 7.00 to 8.00 |
| CN1CC2CC1CN2c1ccc(Nc2ncc3c(n2)N(c2cccc(N=S(C)(C)=O)c2)C2CC(C)(C)OCC32C)cc1 (single isomer, unassigned) [Example 711] | 6.00 to 7.00 |
| CNc1ncc2c(n1)N(c1cccc(N=S(C)(C)=O)n1)[C@@H]1CC(C)(C)OC[C@]21C (single isomer, unassigned) [Example 723] | 7.00 to 8.00 |
